Laboratory results from patent publication US11672251B2, “Herbicidally active pyridyl-/pyrimidyl-pyrimidine derivatives” (Syngenta Participations AG, priority 2017, dated 2023).

Assays:
Type in all cases: in vivo
[1] = tested on: Zea Mays (ZEAMX); assay: B1 pre-emergence herbicidal activity; conditions: Test 1a, rate 1000 g/ha, evaluated after 13 days, scale 5=total damage to plant, 0=no damage to plant
Description: (§1) Seeds of a variety of test species were sown in standard soil in pots: Triticum aestivium (TRZAW), Avena fatua (AVEFA), Alopecurus myosuroides (ALOMY), Echinochloa crus-galli (ECHCG), Lolium perenne (LOLPE), Zea Mays (ZEAMX), Abutilon theophrasti (ABUTH), Amaranthus retroflexus (AMARE) and Setaria faberi (SETFA). After cultivation for one day (pre-emergence) under controlled conditions in a glasshouse (at 24/16° C., day/night; 14 hours light; 65% humidity), the plants were sprayed with an aqueous spray solution derived from the formulation of the technical active ingredient in acetone/water (50:50) solution containing 0.5% Tween 20 (polyoxyethelyene sorbitan monolaurate, CAS RN 9005-64-5). The test plants were then grown in a glasshouse under controlled conditions (at 24/16° C., day/night; 14 hours light; 65% humidity) and watered twice daily. After 13 days, the test was evaluated (5=total damage to plant; 0=no damage to plant).

[2] = tested on: Lolium perenne (LOLPE); assay: B1 pre-emergence herbicidal activity; conditions: rate 1000 g/ha, evaluated after 13 days, scale 5=total damage to plant, 0=no damage to plant
Description: as §1

[3] = tested on: Setaria faberi (SETFA); assay: B1 pre-emergence herbicidal activity; conditions: rate 1000 g/ha, evaluated after 13 days, scale 5=total damage to plant, 0=no damage to plant
Description: as §1

[4] = tested on: Amaranthus retroflexus (AMARE); assay: B1 pre-emergence herbicidal activity; conditions: Test 1a, rate 1000 g/ha, evaluated after 13 days, scale 5=total damage to plant, 0=no damage to plant
Description: as §1

[5] = tested on: Echinochloa crus-galli (ECHCG); assay: B1 pre-emergence herbicidal activity; conditions: rate 1000 g/ha, evaluated after 13 days, scale 5=total damage to plant, 0=no damage to plant
Description: as §1

[6] = tested on: Abutilon theophrasti (ABUTH); assay: B1 pre-emergence herbicidal activity; conditions: Test 1a, rate 1000 g/ha, evaluated after 13 days, scale 5=total damage to plant, 0=no damage to plant
Description: as §1

[7] = tested on: Zea Mays (ZEAMX); assay: B2 post-emergence herbicidal activity; conditions: Test B2a; post-emergence (sprayed after 8 days cultivation); rate 1000 g/ha; evaluated after 13 days; scale 5=total damage to plant, 0=no damage to plant
Description: (§2) Seeds of a variety of test species were sown in standard soil in pots: Triticum aestivium (TRZAW), Avena fatua (AVEFA), Alopecurus myosuroides (ALOMY), Echinochloa crus-galli (ECHCG), Lolium perenne (LOLPE), Zea Mays (ZEAMX), Abutilon theophrasti (ABUTH), Amaranthus retroflexus (AMARE) and Setaria faberi (SETFA). After 8 days cultivation (post-emergence) under controlled conditions in a glasshouse (at 24/16° C., day/night; 14 hours light; 65% humidity), the plants were sprayed with an aqueous spray solution derived from the formulation of the technical active ingredient in acetone/water (50:50) solution containing 0.5% Tween 20 (polyoxyethelyene sorbitan monolaurate, CAS RN 9005-64-5). The test plants were then grown in a glasshouse under controlled conditions (at 24/16° C., day/night; 14 hours light; 65% humidity) and watered twice daily. After 13 days, the test was evaluated (5=total damage to plant; 0=no damage to plant).

[8] = tested on: Lolium perenne (LOLPE); assay: B2 post-emergence herbicidal activity; conditions: post-emergence (sprayed after 8 days cultivation), rate 1000 g/ha, evaluated after 13 days, scale 5=total damage to plant, 0=no damage to plant
Description: as §2

[9] = tested on: Setaria faberi (SETFA); assay: B2 post-emergence herbicidal activity; conditions: post-emergence (sprayed after 8 days cultivation), rate 1000 g/ha, evaluated after 13 days, scale 5=total damage to plant, 0=no damage to plant
Description: as §2

[10] = tested on: Amaranthus retroflexus (AMARE); assay: B2 post-emergence herbicidal activity; conditions: Test B2a; post-emergence (sprayed after 8 days cultivation); rate 1000 g/ha; evaluated after 13 days; scale 5=total damage to plant, 0=no damage to plant
Description: as §2

[11] = tested on: Echinochloa crus-galli (ECHCG); assay: B2 post-emergence herbicidal activity; conditions: post-emergence (sprayed after 8 days cultivation), rate 1000 g/ha, evaluated after 13 days, scale 5=total damage to plant, 0=no damage to plant
Description: as §2

[12] = tested on: Abutilon theophrasti (ABUTH); assay: B2 post-emergence herbicidal activity; conditions: Test B2a; post-emergence (sprayed after 8 days cultivation); rate 1000 g/ha; evaluated after 13 days; scale 5=total damage to plant, 0=no damage to plant
Description: as §2

[13] = tested on: Alopecurus myosuroides (ALOMY); assay: B1 pre-emergence herbicidal activity; conditions: Test 1b, rate 1000 g/ha, evaluated after 13 days, scale 5=total damage to plant, 0=no damage to plant
Description: as §1

[14] = tested on: Triticum aestivium (TRZAW); assay: B1 pre-emergence herbicidal activity; conditions: Test 1b, rate 1000 g/ha, evaluated after 13 days, scale 5=total damage to plant, 0=no damage to plant
Description: as §1

[15] = tested on: Avena fatua (AVEFA); assay: B1 pre-emergence herbicidal activity; conditions: Test 1b, rate 1000 g/ha, evaluated after 13 days, scale 5=total damage to plant, 0=no damage to plant
Description: as §1

[16] = tested on: Alopecurus myosuroides (ALOMY); assay: B2 post-emergence herbicidal activity; conditions: Test B2b; post-emergence (sprayed after 8 days cultivation); rate 1000 g/ha; evaluated after 13 days; scale 5=total damage to plant, 0=no damage to plant
Description: as §2

[17] = tested on: Triticum aestivium (TRZAW); assay: B2 post-emergence herbicidal activity; conditions: Test B2b; post-emergence (sprayed after 8 days cultivation); rate 1000 g/ha; evaluated after 13 days; scale 5=total damage to plant, 0=no damage to plant
Description: as §2

[18] = tested on: Avena fatua (AVEFA); assay: B2 post-emergence herbicidal activity; conditions: Test B2b; post-emergence (sprayed after 8 days cultivation); rate 1000 g/ha; evaluated after 13 days; scale 5=total damage to plant, 0=no damage to plant
Description: as §2

SMILES	Control after pre-emergence application, damage score: ZEAMX [1]	Control after pre-emergence application, damage score: LOLPE ([2]; Test 1a)	Control after pre-emergence application, damage score: SETFA ([3]; Test 1a)	Control after pre-emergence application, damage score: AMARE [4]	Control after pre-emergence application, damage score: ECHCG ([5]; Test 1a)	Control after pre-emergence application, damage score: ABUTH [6]	Control after post-emergence application, damage score: ZEAMX [7]	Control after post-emergence application, damage score: LOLPE ([8]; Test B2a)	Control after post-emergence application, damage score: SETFA ([9]; Test B2a)	Control after post-emergence application, damage score: AMARE [10]	Control after post-emergence application, damage score: ECHCG ([11]; Test B2a)	Control after post-emergence application, damage score: ABUTH [12]	Control after pre-emergence application, damage score: ALOMY [13]	Control after pre-emergence application, damage score: LOLPE ([2]; Test 1b)	Control after pre-emergence application, damage score: SETFA ([3]; Test 1b)	Control after pre-emergence application, damage score: TRAZW [14]	Control after pre-emergence application, damage score: AVEFA [15]	Control after pre-emergence application, damage score: ECHCG ([5]; Test 1b)	Control after post-emergence application, damage score: ALOMY [16]	Control after post-emergence application, damage score: LOLPE ([8]; Test B2b)	other results
CNc1cnc(-c2cncc(F)c2)nc1C [Compound D1, 2-(5-fluoro-3-pyridyl)-N,4-dimethyl-pyrimidin-5-amine]	0	0	3	1	1	1	1	1	3	0	2	0	–	–	–	–	–	–	–	–	–
CN(C)c1cnc(-c2cncc(F)c2)nc1C(F)(F)F [Compound D8]	–	–	–	–	–	–	–	–	–	–	–	–	0	1	4	0	1	2	0	0	Control after post-emergence application, damage score: SETFA ([9]; Test B2b): 5; Control after post-emergence application, damage score: TRAZW [17]: 0; Control after post-emergence application, damage score: AVEFA [18]: 1; Control after post-emergence application, damage score: ECHCG ([11]; Test B2b): 4
CCNc1cnc(-c2cncc(N)c2)nc1C(F)(F)F [Compound D11]	–	–	–	–	–	–	–	–	–	–	–	–	0	0	5	0	0	3	1	1	Control after post-emergence application, damage score: SETFA ([9]; Test B2b): 5; Control after post-emergence application, damage score: TRAZW [17]: 1; Control after post-emergence application, damage score: AVEFA [18]: 2; Control after post-emergence application, damage score: ECHCG ([11]; Test B2b): 5
Cc1nc(-c2cncc(F)c2)ncc1N [Compound D2, 2-(5-fluoro-3-pyridyl)-4-methyl-pyrimidin-5-amine]	0	0	2	1	1	1	1	1	3	1	2	1	–	–	–	–	–	–	–	–	–
